Test results taken from article PMC4569384, “[^11C]MADAM Used as a Model for Understanding the Radiometabolism of Diphenyl Sulfide Radioligands for Positron Emission Tomography (PET)” (PLoS ONE, 2015).
Read-outs that look alike come from different tables or passages of the source.

Assays:
[1] = parameters: method as in PMID 17096093, PMID 18800204; settings: cited from earlier work
[2] = Quantification of MADAM and metabolites in HLM incubations by UHPLC/Q-ToF-MS; format: in vitro ADME, human; settings: for Concentration in HLM incubation: MADAM 10 μM initial
Description: (§1) MADAM and/or [^11C]MADAM (5–15 MBq) were incubated with HLM and RLM (0.5 mg/mL) at 37°C in 1 mL of 0.05 M potassium phosphate buffer (pH 7.4) containing 5 mM NADPH. Experiments were performed with MADAM concentrations of 1 and 10 μM. The incubation times were the following: […] (RLM experiments); 10, 45 and 90 min (HLM experiments). The incubation was stopped by adding an equal volume of ice-cold acetonitrile. The mixture was then vortexed and centrifuged and the supernatant was removed, evaporated. The residue was reconstituted in 150 μL mobile phase before being analyzed by radio-HPLC and UHPLC/Q-ToF-MS as described below. Control incubations in the absence of microsomes, MADAM or NADPH were also performed to assure that the observed peaks corresponded to MADAM metabolites.
(§2) The analyses were performed on a Waters (Milford, MA, USA) Acquity Ultra Performance LC^TM binary solvent manager coupled to a photodiode array detector and Waters (Micromass UK Limited, Manchester, UK) Q-Tof Premier. All the samples (10 μL) were injected onto a Waters Ethylene Bridged Hybrid (BEH) C18 column (2.1 x 50 mm, 1.7 μm) and eluted by a 5 min linear gradient starting from 100% water containing 0.1% formic acid and ending with 30% acetonitrile containing 0.1% formic acid at a flow rate of 0.5 mL/min. Positive electrospray ionization (+ESI) in V-mode with an extended dynamic range was used under the following conditions: capillary 3.5 kV, sampling cone 25 V, extraction cone 4.5 V, source temperature 100°C and desolvation temperature 380°C. Two scan functions, MS and MS^E, in the mass range of 100–1000 Da, were performed simultaneously. The collision energy was set to 5 eV during the MS acquisition and it was ramped from 10 to 35 eV during the MS^E acquisition. MetaboLynx^TM (Waters, Milford, MA, USA) was used to aid metabolite identification.
In the present study, we further aimed to estimate the concentration of the ligand (MADAM) as well as that of the identified metabolites, among them NHMADAM, SOMADAM and NHSOMADAM, for which reference compounds were available. UHPLC/Q-ToF-MS instrumentation was employed to quantify these compounds in RLM and HLM incubations using AFM as the internal standard. In HLM incubations, the concentration of MADAM decreased from 10 μM to 7.76 ± 0.5 μM at 30 min and approximately half of MADAM (5.1 ± 0.5 μM) was still present after an incubation time of 120 min. […] Negligible amounts of the other two metabolites, SOMADAM and NHSOMADAM, were detected at these times. The concentration of SOMADAM ranged from 0.12 ± 0.02 μM to 0.15 ± 0.01 μM over time. A very slight increase in the concentration of NHSOMADAM was observed, from 0.12 ± 0.01 μM to 0.32 ± 0.03 μM at 30 min and 120 min incubation times, respectively.

[3] = Quantification of MADAM and metabolites in RLM incubations by UHPLC/Q-ToF-MS; format: in vitro ADME, rat; settings: for Concentration in RLM incubation / Concentration in RLM incubation (in words): MADAM 10 μM initial; for Concentration in RLM incubation (in words): various incubation times
Description: as §1, §2
The parent compound MADAM was present at a concentration of 1.83 ± 0.20 μM at 10 min and from 30 min the concentration was very low (0.17 to 0.09 μM), indicating a fast metabolism in RLM. […] However, the concentration of the latter declined to 2.08 ± 0.3 μM to at 10 min and to 0.72 ± 0.31 at 60 min. The quantification in HLM experiments was not undertaken after 120 min.

[4] = Incubation of [^11C]MADAM with rat liver microsomes, radio-HPLC; format: in vitro ADME; settings: for Percentage of unchanged [^11C]MADAM: RLM 0.5 mg/mL, NADPH, no-carrier-added
Description: as §1
(§3) Reversed phase HPLC was used to determine the percentages of radioactivity in microsomal incubation samples that corresponded to unchanged radioligand and its radiometabolites. The HPLC system consists of a Merck Hitachi D-7000 pump, an interface module, a Merck Hitachi L-7400 UV absorbance detector (254 nm) in series with a Packard Radiomatic 150TR radiodetector equipped with a 600 μL flow cell, and a Rheodyne 7125 manual injector. A Waters μ-Bondapak C18 column (7.8 x 300 mm, 10 μm) with acetonitrile (A) and ammonium formate 0.1M (B) as the mobile phase was used with a flow rate of 6.0 mL/min, according to the following gradient: 0–4.5 min, (A/B) 10/90-15/85; 4.5–5.0 min, (A/B) 15/85-20/80; 5.0–5.5 min (A/B) 20/80-45/55; 5.5–9.0 min (A/B) 45/55; 9.0–10 min (A/B) 45/55-70/30; 10.0–20.0 min (A/B) 70/30. The detected peaks were integrated and their areas were expressed as a percentage of the sum of areas of all radioactive compounds present (decay-corrected).

[5] = Incubation of [^11C]MADAM with human liver microsomes, radio-HPLC; format: in vitro ADME; settings: for Percentage of unchanged [^11C]MADAM: HLM 0.5 mg/mL, NADPH, no-carrier-added; for Intact [^11C]MADAM (%): HLM, t = 45 min
Description: as §1, §3

[6] = Radio-HPLC of rat urine after intravenous perfusion of [^11C]MADAM/MADAM; format: in vivo; settings: for Percentage of intact [^11C]MADAM in urine: no carrier added
Description: as §3
All animal handling and experiments were carried out in accordance with the guidelines of Karolinska Institutet and were approved by the local laboratory animal ethics committee (N 363/05 and N 373/07). The rats were housed under standard laboratory conditions with free access to laboratory food and water ad libitum. Male Sprague-Dawley rats were anesthetized with isoflurane, via an E-Z anesthesia vaporizer (5% initially and then 1.5% to maintain anesthesia, blended with 7:3 air: O2 and delivered through a Microflex non-rebreathing mask from Euthanex Corporation, Palmer, PA. The rats were placed on a heating pad (37°C) while [^11C]MADAM (52–76 MBq) and/or MADAM (25 μg to 1 mg) as a perfusion were administered intravenously; the rats were sacrificed at various time points after the administration (15, 30 and 60 min). Urine samples were collected at each time point and acetonitrile (400 μL) was added. After centrifugation at 3000g for 4 min, the supernatant was injected into the radio-HPLC (section 2.3). The radioactivity of the precipitate was measured to quantify the efficiency of the acetonitrile extraction.

[7] = parameters: method as in PMID 16157534; settings: 50 min after injection; cited from earlier work
[8] = parameters: method as in PMID 24857865; settings: rats euthanized 15 and 30 min post injection; cited from earlier work
[9] = parameters: method as in earlier work; settings: human, 60 minutes after injection, cited from earlier work
[10] = parameters: method as in PMID 24857865; settings: cited from earlier work; for Fraction of total radioactivity in plasma: macaque plasma

[11CH3]Oc1ccccc1O[C@@H](c1ccccc1)[C@@H]1CNCCO1 [(S,S)-[^11C]MeNER]
Effect of addition of carrier on radiometabolic profile [1]: not affect the radiometabolic profile

Cc1ccc(Sc2ccccc2CN(C)C)c(N)c1 [MADAM]
Concentration in HLM incubation ([2]; incubation 30 min): 7.76 ± 0.5 µM
Concentration in HLM incubation ([2]; incubation 120 min): 5.1 ± 0.5 µM
Concentration in RLM incubation ([3]; incubation 10 min): 1.83 ± 0.20 µM

CNCc1ccccc1Sc1ccc(C)cc1N [NHMADAM]
Concentration in HLM incubation ([2]; incubation 30 min): 2.08 ± 0.40 µM
Concentration in HLM incubation ([2]; incubation 120 min): 2.89 ± 0.40 µM
Concentration in RLM incubation ([3]; incubation 10 min): 2.08 ± 0.3 µM
Concentration in RLM incubation ([3]; incubation 60 min): 0.72 ± 0.31 µM

CNCc1ccccc1[S+]([O-])c1ccc(C)cc1N (stereo not shown) [NHSOMADAM]
Concentration in HLM incubation ([2]; incubation 30 min): 0.12 ± 0.01 µM
Concentration in HLM incubation ([2]; incubation 120 min): 0.32 ± 0.03 µM
Concentration in RLM incubation (in words) [3]: very low concentrations

Cc1ccc(S(=O)(=O)c2ccccc2CN(C)C)c(N)c1 [SO2MADAM]
Detection as metabolite of MADAM in microsomal preparations ([2]; HLM, MADAM 10 μM): not detected
Detection as metabolite of MADAM in microsomal preparations ([3]; RLM, MADAM 10 μM): not detected

Cc1ccc([S+]([O-])c2ccccc2CN(C)C)c(N)c1 (stereo not shown) [SOMADAM]
Concentration in RLM incubation (in words) [3]: very low concentrations

Cc1ccc(Sc2ccccc2CN(C)[11CH3])c(N)c1 [[^11C]MADAM]
Percentage of unchanged [^11C]MADAM ([4]; incubation 1 min): 3.3 ± 1%
Percentage of unchanged [^11C]MADAM ([4]; incubation 1 min, listed as [ ^11 C]MADAM): 3.3 ± 1% ^1
Percentage of unchanged [^11C]MADAM ([4]; incubation 4 min): no [^11C]MADAM was detected
Radiometabolites in control incubations ([4]; RLM experiments, control without either NADPH or microsomes): No radiometabolites were detected
Intact [^11C]MADAM (%) ([4]; RLM, t = 1 min, carrier MADAM 10 μM): 78 ± 4%
Percentage of unchanged [^11C]MADAM ([5]; incubation 10 min): 51 ± 4%
Percentage of unchanged [^11C]MADAM ([5]; incubation 10 min, listed as [ ^11 C]MADAM): 51 ± 4%
Percentage of unchanged [^11C]MADAM ([5]; incubation 45 min): 35 ± 1%
Percentage of unchanged [^11C]MADAM ([5]; incubation 45 min, listed as [ ^11 C]MADAM): 35 ± 1%
Percentage of unchanged [^11C]MADAM ([5]; incubation 90 min): 16 ± 1%
Percentage of unchanged [^11C]MADAM ([5]; incubation 90 min, listed as [ ^11 C]MADAM): 16 ± 1%
Radiometabolites in control incubations ([5]; HLM experiments, control without either NADPH or microsomes): No radiometabolites were detected
Intact [^11C]MADAM (%) ([5]; carrier MADAM 1 μM): 58 ± 2%
Intact [^11C]MADAM (%) ([5]; carrier MADAM 10 μM): 80 ± 5%
Radiometabolites by radio-HPLC or UHPLC/Q-ToF-MS ([6]; high dose of MADAM approximately 1 mg perfused): no radiometabolites were detected
Percentage of unchanged [^11C]MADAM in urine ([6]; i.v. perfusion 15 min, carrier MADAM 25 μg): 16%
Radiometabolites in urine ([6]; i.v. perfusion 15 min, carrier MADAM 125 μg): no radiometabolites were observed
Percentage of intact [^11C]MADAM in urine ([6]; i.v. perfusion 15 min): 9%
Percentage of intact [^11C]MADAM in urine ([6]; i.v. perfusion 30 min): undetectable
Percentage of intact [^11C]MADAM in urine ([6]; i.v. perfusion 60 min): undetectable
Radiometabolites in urine ([6]; more than 25 μg carrier, perfusion time 30 and 60 min): no radiometabolites were detected
Percentage of unchanged radioligand in human plasma [7]: approximately 40%
Radioactive species in rat brain by radio-HPLC [8]: only one radioactive peak corresponding to [^11C]MADAM

Cc1ccc(C2CC3CCC(C2C(=O)O[11CH3])N3CC=CI)cc1 (stereo not shown) [[^11C]PE2I]
Effect of addition of carrier on radiometabolic profile [1]: not affect the radiometabolic profile

[11CH3]N1CCc2cc(Cl)c(O)cc2C2c3ccccc3CCC21 (stereo not shown) [[^11C]SCH 39166]
Percentage unchanged in plasma ([9]; high specific radioactivity): approximately 30%
Percentage unchanged in plasma ([9]; low specific radioactivity): ~15%

Cc1ccc(S(=O)(=O)c2ccccc2CN(C)[11CH3])c(N)c1 [[^11C]SO2MADAM]
Detection in plasma as further oxidation product ([10]; macaque plasma after injection of [^11C]MADAM): No further oxidation to [^11C]SO2MADAM was detected

Cc1ccc([S+]([O-])c2ccccc2CN(C)[11CH3])c(N)c1 (stereo not shown) [[^11C]SOMADAM]
Fraction of total radioactivity in plasma ([10]; 4 min after injection of [^11C]MADAM): 5%
Fraction of total radioactivity in plasma ([10]; 15 min after injection of [^11C]MADAM): 1%
